Reference: patent publication EP0928291B1, “3-MERCAPTOACETYLAMINO-1,5-SUBSTITUTED-2-OXO-AZEPAN DERIVATIVES USEFUL AS INHIBITORS OF MATRIX METALLOPROTEINASE” (Aventis Pharmaceuticals Inc., priority 1996, dated 1998)

Legend:
Format in all cases: biochemical
MMP-3 = target: T1, MMP-3 (Homo sapiens, UniProt P08254); experiment: Determination of Inhibition Constant (Ki) for MMP-3, fluorogenic substrate assay; conditions: activated MMP-3, substrate Mca-Pro-Leu-Gly-Leu-Dpa-Ala-Arg-NH2, 37°C, pH 7.6, [S] = 1 µM, [MMP-3] = 1 nM
T1 construct: The active MMP-3 was obtained by treatment of proMMP-3 with trypsin; endogenous in cells; host or cells: human rheumatoid synovial fibroblasts stimulated with macrophage-conditioned medium (secreted proenzyme purified from the culture medium)
T1 sequence (P08254 100-477): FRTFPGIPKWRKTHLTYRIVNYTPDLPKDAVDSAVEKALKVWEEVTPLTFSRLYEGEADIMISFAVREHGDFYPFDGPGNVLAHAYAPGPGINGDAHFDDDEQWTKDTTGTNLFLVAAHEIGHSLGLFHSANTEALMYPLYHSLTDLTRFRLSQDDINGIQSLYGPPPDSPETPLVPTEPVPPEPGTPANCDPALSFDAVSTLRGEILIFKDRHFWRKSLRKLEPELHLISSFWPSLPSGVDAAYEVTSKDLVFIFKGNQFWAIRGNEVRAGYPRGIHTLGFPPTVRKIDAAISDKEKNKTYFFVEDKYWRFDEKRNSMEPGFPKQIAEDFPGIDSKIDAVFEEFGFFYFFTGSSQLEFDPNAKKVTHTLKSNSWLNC
Description: ProMMP-3 (EC 3.4.24.17; Stromelysin-1) was purified from culture medium of human rheumatoid synovial fibroblasts stimulated with macrophage-conditioned medium according to Okada, Y. et al., J. Biol. Chem. 261, 14245-14255 (1986). The active MMP-3 was obtained by treatment of proMMP-3 with trypsin (5 µg/mL) at 37°C for 30 min, followed by addition of soybean trypsin inhibitor (50 µg/mL). Aliquots of the activated MMP-3 were stored at -20°C.
The activated MMP-3 is assayed using a fluorogenic substrate, Mca-Pro-Leu-Gly-Leu-Dpa-Ala-Arg-NH2, Knight, C.G. et al., FEBS Lett. 296, 263-266 (1992), at 37°C in an assay buffer containing 50 mM Tris, pH 7.6, 0.2 M NaCI, 50 mM CaCl2, and 0.02% Brij-35. The increase in fluorescence due to cleavage of Gly-Leu peptide bond by MMP-3 was monitored with Perkin-Elmer LS50B Fluorimeter (λex 328 nm, λem 393 nm, excitation slit 2.5, emission slit 10). Substrate and inhibitor stock solutions were made in DMF and 0.1% HCl-DMF, respectively. […] Under these conditions, the measured Ki, app is close to true Ki.
(§1) The Ki for a competitive inhibitor is calculated using: v0/vi = (1 + [I]/Ki, app) and Ki = Ki, app/(1 + [S]/Km), where v0 is the initial rate in the absence of inhibitor, vi is the initial rate in the presence of inhibitor at the concentration of [I], [S] is the substrate concentration, and Km is the Michaelis constant. […]

[1] = target: T2, MMP-12 (macrophage metalloelastase) (Homo sapiens, UniProt P39900); experiment: Determination of the inhibition constant (Ki) for MMP-12, fluorogenic substrate assay (cuvette or microtiter plate); conditions: substrate Mca-Pro-Leu-Gly-Leu-Dpa-Ala-Arg-NH2, 25C, pH 7.6, [MMP-12] = 2 nM, cuvette or microtiter plate method
T2 construct: made in house
T2 sequence (P39900 106-263 limits assumed): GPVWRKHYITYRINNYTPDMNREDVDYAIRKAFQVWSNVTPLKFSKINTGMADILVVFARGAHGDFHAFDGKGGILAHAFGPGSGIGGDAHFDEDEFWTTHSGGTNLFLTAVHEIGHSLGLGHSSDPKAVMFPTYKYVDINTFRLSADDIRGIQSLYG
Description: MMP-12 (EC 3.4.24.65) was cloned, expressed and purified according to Shapiro, S.D. et al., J Biol. Chem. 268, 23824-23829 (1993). […] Aliquots of MMP-12 were stored at -70C.
The potency of inhibitors of MMP-12 was measured using either quartz cuvettes or microtiter plates. The activity of MMP-12 was measured using a fluorogenic substrate, Mca-Pro-Leu-Gly-Leu-Dpa-Ala-Arg-NH2, Knight, C.G. et al., FEBS Lett. 296,263-266 (1992), at 25C in an assay buffer containing 50 mM Tris, pH 7.6, 0.2 M NaCl, 50 mM CaCl2, and 0.02% Brij-35. The increase in fluorescence due to cleavage of Gly-Leu peptide bond by MMP-12 was monitored with a Perkin-Elmer LS50B Fluorimeter (λex 328 nm, λem 393 nm, excitation slit 2.5, emission slit 10) for the cuvette assay and with a Molecular Devices Fmax fluorescence plate reader (λex 320 nm, λem 405 nm) for the microtiter plate assay. Substrate and inhibitor stock solutions were made in N,N,dimethylformamide (DMF) and 0.1% HCI-DMF, respectively. […]
Ki values were determined using the microtiter plate method in a manner similar to that described for the cuvette method with some modifications. […] Cleavage of substrate was recorded every 30 seconds for 30 minutes and progress curves were generated. […]

MMP-2 = target: T3, MMP-2 (Homo sapiens, UniProt P08253); experiment: Determination of Inhibition Constant (Ki) for MMP-2, fluorogenic substrate assay; conditions: recombinant MMP-2, substrate Mca-Pro-Leu-Gly-Leu-Dpa-Ala-Arg-NH2, 37°C, pH 7.6, [S] = 1 µM, [MMP-2] = 0.4 nM
T3 construct: made in house; host or cells: Pichia pastoris (strains KM71 / SMD1168, clone 24S)
T3 sequence (P08253 110-660): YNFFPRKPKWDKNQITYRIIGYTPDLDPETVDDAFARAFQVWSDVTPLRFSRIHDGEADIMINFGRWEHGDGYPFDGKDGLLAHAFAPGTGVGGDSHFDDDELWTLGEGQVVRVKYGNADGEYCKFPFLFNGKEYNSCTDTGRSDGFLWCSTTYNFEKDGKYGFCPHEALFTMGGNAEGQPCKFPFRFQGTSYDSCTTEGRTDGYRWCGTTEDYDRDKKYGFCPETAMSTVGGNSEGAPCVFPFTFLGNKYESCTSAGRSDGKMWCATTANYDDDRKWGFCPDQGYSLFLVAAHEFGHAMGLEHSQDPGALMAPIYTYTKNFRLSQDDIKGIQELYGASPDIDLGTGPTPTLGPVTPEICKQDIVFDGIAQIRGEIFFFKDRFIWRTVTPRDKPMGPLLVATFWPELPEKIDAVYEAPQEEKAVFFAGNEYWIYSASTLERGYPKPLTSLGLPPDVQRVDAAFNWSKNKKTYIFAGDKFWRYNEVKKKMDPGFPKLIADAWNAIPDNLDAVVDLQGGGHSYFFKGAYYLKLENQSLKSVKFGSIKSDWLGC
From the text: Recombinant MMP-2 was purified from the fermentation broth of yeast Pichia pastoris that carries the integrated MMP-2 gene into its chromosome. In brief, the full-length cDNA for MMP-2 was obtained by reverse transcription of RNA from human melanoma A375M cell line by the reverse transcriptase polymerase chain reaction (RT-PCR) using sequence specific oligonucleotides. The nucleotide sequence was confirmed by Taq cycle sequencing. The cDNA was ligated into the Pichia pastoris expression vector pHIL-D2 in such a way that the expression of pro-MMP2 is under the control of the methano inducible alcohol oxidase promoter. The expression construct was digested with either SalI or NsiI and used to transform the Pichia pastoris strains KM71 and SMD1168. […]
The active MMP-2 was obtained by activation of proMMP-2 at 37°C for 1 h with 4-aminophenylmercuric acetate which was then removed by a Sephadex G-50 spin column. […] The increase in fluorescence is monitored (λex 328 nm, λem 393 nm). […] Under these conditions, the measured Ki, app is close to true Ki.
as §1

Ki (MMP-3) [nM] | Ki [1] [nM] | Ki (MMP-2) [nM] | SMILES
73 | 53 |  | CNC(=O)C(Cc1ccccc1)N1CCC(c2ccccc2)CC(NC(=O)C(S)CCCCN2C(=O)c3ccccc3C2=O)C1=O (stereo not drawn) [Compound III-1, 2H-Isoindole-2-hexanamide, N-[hexahydro-1-[2-(methylamino)-2-oxo-1-(phenylmethyl)ethyl]-2-oxo-5-phenyl-1H-azepin-3-yl]-1,3-dihydro-α-mercapto-1,3-dioxo-, [3S-[1(R*), 3α, 5β]]-]
39 | 18 | 1.2 | CNC(=O)C(Cc1ccccc1)N1CCC(c2ccccc2)CC(NC(=O)C(S)CCCCN2C(=O)c3ccccc3C2=O)C1=O (stereo not drawn) [Compound II-1, 2H-Isoindole-2-hexanamide, N-[hexahydro-1-[2-(methylamino)-2-oxo-1-(phenylmethyl)ethyl]-2-oxo-5-phenyl-1H-azepin-3-yl]-1,3-dihydro-α-mercapto-1,3-dioxo-, [3S-(1(R*), 3α, 5α]]-]
